From patent publication US5273978A, “Optically active isoindoline derivatives, their production and use” (Takeda Chemical Industries, Ltd., priority 1991, dated 1993) come the findings set out here.

Where two headings read alike, the source gives them in different places.

One experiment concerns Male rats (SD/JCL). As to the kind of experiment: Antianxiety action (Vogel method, anticonflict water drinking test in rats). The format is in vivo, rat (SD/JCL). To be noted: for minimal effective dose: Rattus norvegicus, rats; for antianxiety action stronger than that of the corresponding racemic modification: from MED values of Table 2.
For the next experiment, the system named is benzodiazepine receptor. As to the kind of experiment: Inhibition of [3H]diazepam binding to benzodiazepine receptor (crude mitochondrial fraction of rat cerebral cortex). To be noted: in words. Further details: species or system male SD rats. On the procedure:
The affinity of the compound of the present invention to a benzodiazepine receptor was investigated using radioactive [^3 H] diazepam.
Capability of specific binding to a benzodiazepin receptor was determined in accordance with the method described in the literature (Nature, 266, 732 (1977); European J. Pharmacol., 48, 263 (1978). Specifically, a crude mitochondrial fraction obtained from the cerebral cortex of male SD rats at 9 to 10 weeks of age was suspended in 50 mM Tris-HCL buffer (pH 7.4), and incubated, together with several concentrations of the subject drug and ^3 H-diazepam (final concentration 2 nM), at 4° C. for 20 minutes. This suspension was then filtered through a Whatman GF/B glass fiber filter, and the ^3 H-diazepam radioactivity on the filter was measured using a liquid scintillation counter. The concentration of the subject drug at which ^3 H-diazepam binding was inhibited by 50% was taken as the IC50 value.
Results from a typical compounds (VI) and (VIII) of the present invention and the corresponding racemic modifications thereof are shown in Table 1.

The mark [1] stands for this setting: ip, 0.05 h, i.p., water drinking frequency in 3 minutes, read-out: Minimum Effective Dose (MED), antianxiety action (Vogel method).
Where [2] appears, read: po, 0.5 h, p.o., 30 minutes after dosing, water drinking frequency in 3 minutes, read-out: Minimum Effective Dose (MED), antianxiety action (Vogel method).

As to `O=C(CC1c2ccccc2C(=O)N1c1ccc2ccc(Cl)nc2n1)N1CCC(O)CC1` (racemic) [Racemic modification of (VIII), reference compound], the minimal effective dose in the experiment with Male rats (SD/JCL) (setting [1]) was 20 mg/kg.
Take `O=C(C[C@H]1c2ccccc2C(=O)N1c1ccc2ccc(Cl)nc2n1)N1CCC(O)CC1` [(VIII), (S)-(+)-2-(7-chloro-1,8-naphthylidin-2-yl)-3-[(4-hydroxypiperidin-1-yl)carbonylmethyl]isoindolin-1-one]: the minimal effective dose with Male rats (SD/JCL) (setting [1]) amounted to 5 mg/kg. Besides, the “antianxiety action stronger than that of the corresponding racemic modification” value in the experiment with Male rats (SD/JCL) was found to be 4 times.
For `O=C(C[C@H]1c2ccccc2C(=O)N1c1ccc2ccc(Cl)nc2n1)N1CCC2(CC1)OCCO2` [(VI), (S)-(+)-2-(7-chloro-1,8-naphthylidin-2yl)-3-[(1,4-dioxa-8-azaspiro[4.5]dec-8-yl)carbonylmethyl]isoindolin-1-one], the minimal effective dose in the experiment with Male rats (SD/JCL) (po, 0.5 h, P.O., read-out: MED for antianxiety action in rats) is no more than 1.25 mg/kg; with Male rats (SD/JCL) (setting [2]) it was 1.25 mg/kg. In the experiment with Male rats (SD/JCL), the “antianxiety action stronger than that of the corresponding racemic modification” value is reported as 8 times. The “affinity to the benzodiazepin receptor versus racemic modification” value with benzodiazepine receptor was “no enhanced affinity”.
In the case of `O=C(CC1c2ccccc2C(=O)N1c1ccc2ccc(Cl)nc2n1)N1CCC2(CC1)OCCO2` (racemic) [Racemic modification of (VI), reference compound], the minimal effective dose in the experiment on Male rats (SD/JCL) (setting [2]) amounted to 10 mg/kg. Moreover, the “affinity to the benzodiazepin receptor versus racemic modification” value with benzodiazepine receptor is recorded as “nearly fully potent action”.
